Measured values taken from patent US20220098197A1, “SALTS OF HETEROCYCLIC COMPOUND AND USE THEREOF” (priority 2019, published 2022).
Values joined by “and” are separate entries in the source; they are usually repeats but may differ in a detail not shown here. Identical values can stand only once.

Legend:
[1] = Dissolution test of capsules (Chinese Pharmacopoeia 2015, General Method 0931, 2nd Method); assay type: physicochemical
Description: The hydrates obtained hereinabove and the compound of formula A were tested for dissolution rate. The test method was as follows.
Step 1: Pretreating Raw Materials
The samples were passed through a 100 mesh sieve.
Step 2: Blending Raw Materials with Auxiliary Materials
The raw materials and lactose were weighed according to the prescription, mixed in equal increment, sieved and mixed.
The capsules were filled via a capsule filling plate and sealed. The difference of the filling amount was controlled to ±5%. The appearance was inspected to ensure that the sealing was correct and there was no split or deformation.
Test method: dissolution test method (Chinese Pharmacopoeia, edited in 2015, Chapter 4, General Method 0931, the 2nd Method)
Dissolution medium: aqueous solution
Specific test method: The sample was tested following the dissolution test method (Chinese Pharmacopoeia, edited in 2015, Chapter 4, General Method 0931, the 2nd Method). 900 ml aqueous solution was used as the dissolution medium. The speed was 50 rpm. The test was performed in accordance with the method. […] After filtration, the filtrate was precisely measured and quantitatively diluted with the dissolution medium to prepare a solution containing about 10 μg of sample per 1 ml. The absorbance was measured by at 231 nm by UV-Vis spectrophotometry (Chinese Pharmacopoeia, edited in 2015, Chapter 4, General Method 0931, the 2nd Method). An appropriate amount of the control sample was taken, weighed accurately, dissolved in dissolution medium and diluted quantitatively to prepare a solution containing about 10 μg of the sample per 1 ml, and then measured in the same way. The amount of dissolution per capsule was calculated.

LPS-induced ALI mice [2] = test: LPS-induced ALI model: lung MPO activity assay; assay type: in vivo, Balb/c mice; conditions: CT-NA 10 or 30 mg/kg (P<0.01, dose dependence), Dex 1 mg/kg (P<0.01)
Description: Specific pathogen-free (SPF) Balb/c mice (♂/♀; 20-26 g; 8 weeks old) were purchased from Shanghai SIPPR-BK Experimental Animal Co., Ltd. Mice were kept in an isolated ventilated cage in an environment of 40-60% humidity, 24±2° C., and 12 hrs/12 hrs dark-light cycle, and had free access to food and water. The method for preparing the LPS-induced ALI model was simply described as follows. The mice were randomly divided into a control group (12 mice) and an LPS group (48 mice). The LPS group (48 mice) was further divided into four subgroups (12 mice in each subgroup). The unanaesthetized mice in the four subgroups of LPS were intragastrically administered with normal saline (NS), CT-NA at 10 mg/kg or 30 mg/kg, and Dex at 1 mg/kg, respectively. One hour later, the mice were anesthetized with sodium pentobarbital (intraperitoneal injection at 40 mg/kg), and then subjected to intratracheal instillation of NS to control group and LPS (4 mg/kg) to all LPS subgroups. […] 24 hrs after LPS challenge, the oxygen saturation (SO2) of all mice was measured by a Moor VMS-OXY™ instrument which measured SO2 (%) in the microcirculation at the wavelength range of 500 to 650 nm.
The MPO activity assay procedure was as follows. […] Then MPO activity was determined by measuring the changes in absorbance at 460 nm via the standard curves by using MPO assay kits.

RAW264.7 macrophages = test: In vitro ELISA assay, LPS- or PGD2-stimulated RAW264.7; assay type: cell-based, mouse; conditions: CT-NA 10 and 100 μM, dose-dependent
Description: For ELISA and RT-PCR, RAW 264.7 macrophages were acclimated to two 12-well plates at 70-80% confluence. Thereafter, the medium in the 12-well plate was replaced with serum-free RPMI-1640 medium for 10-12 hrs and then exposed to CT-NA (10 and 100 μM) for 1 hour. One hour later, one 12-well plate was treated with LPS (100 ng/ml) for 24 hrs, and the other was treated with PGD2 (10 μM) for 24 hrs. After the treatment, the supernatant of the treated cells was collected to measure the protein levels of TNF-α, IL-1β, IL-6, and KC using ELISA kits according to the method of the instructions. Subsequently, RNA samples from each treated plate were extracted and reverse-transcripted into cDNA with HiScript5xQRTSuperMix, and then subjected to RT-PCR using BioRad CFX96 Touch™ real-time PCR detection system (San Diego, Calif.). Similarly, total RNAs extracted from treated isolated peritoneal macrophages were subjected to analyze the mRNA levels of IL-10, TNF-α, IL-6 and KC. The primers used in the RT-PCR reaction were shown in Table 2. β-actin was used as an internal control. The RT-PCR reactions were triplicated and the relative expression of target mRNA was normalized by the respective β-actin.

LPS-induced ALI mice [3] = test: LPS-induced ALI model: histological examination (H&E); assay type: in vivo, Balb/c mice
Description: Specific pathogen-free (SPF) Balb/c mice (♂/♀; 20-26 g; 8 weeks old) were purchased from Shanghai SIPPR-BK Experimental Animal Co., Ltd. Mice were kept in an isolated ventilated cage in an environment of 40-60% humidity, 24±2° C., and 12 hrs/12 hrs dark-light cycle, and had free access to food and water. The method for preparing the LPS-induced ALI model was simply described as follows. The mice were randomly divided into a control group (12 mice) and an LPS group (48 mice). The LPS group (48 mice) was further divided into four subgroups (12 mice in each subgroup). The unanaesthetized mice in the four subgroups of LPS were intragastrically administered with normal saline (NS), CT-NA at 10 mg/kg or 30 mg/kg, and Dex at 1 mg/kg, respectively. […] 24 hrs after LPS challenge, the oxygen saturation (SO2) of all mice was measured by a Moor VMS-OXY™ instrument which measured SO2 (%) in the microcirculation at the wavelength range of 500 to 650 nm. […]
The lower lobe of the left lung of each mouse was inflated with neutral buffered 10% formalin instilled at room temperature under constant pressure of 22 to 25 cm H2O for 48 hrs. […] Pulmonary edema, hemorrhage, alveolar wall thickening and infiltration of neutrophils and inflammatory cells were counted and scored to evaluate the severity of lung injury. […] The total lung injury score was expressed as the sum of the four criteria. […]

Compound: CN([C@@H]1CCc2c(CC(=O)[O-])c3cccnc3n2C1)S(=O)(=O)c1ccc(F)cc1.[Na+] [Sodium salt hydrate]
- Dissolution rate, Mean (%), 5 min ([1]; mean of 6 capsules, purified water, 50 rpm, 5 min): 50.5%
- Dissolution rate, Mean (%), 10 min ([1]; mean of 6 capsules, purified water, 50 rpm, 10 min): 76.6%
- Dissolution rate, Mean (%), 15 min ([1]; mean of 6 capsules, purified water, 50 rpm, 15 min): 92.1%
- Dissolution rate, Mean (%), 20 min ([1]; mean of 6 capsules, purified water, 50 rpm, 20 min): 98.6%
- Dissolution rate, Mean (%), 30 min ([1]; mean of 6 capsules, purified water, 50 rpm, 30 min): 100.6%
- Dissolution rate, Mean (%), 45 min ([1]; mean of 6 capsules, purified water, 50 rpm, 45 min): 100.8%
- dissolution rate (in words) ([1]; same method, aqueous dissolution medium): best dissolution rate
- Dissolution rate, 5 min ([1]; single capsules 1-6, purified water, 50 rpm, 5 min, hydrate): 55.8% and 34.3% and 57.9% and 45.5% and 56.7% and 52.8%
- Dissolution rate, 10 min ([1]; single capsules 1-6, purified water, 50 rpm, 10 min, hydrate): 77.8% and 82.6% and 69.0% and 73.6% and 62.2% and 94.6%
- Dissolution rate, 15 min ([1]; single capsules 1-6, purified water, 50 rpm, 15 min, hydrate): 96.6% and 79.1% and 91.7% and 93.3% and 99.1% and 92.7%
- Dissolution rate, 20 min ([1]; single capsules 1-6, purified water, 50 rpm, 20 min, hydrate): 101.8% and 94.8% and 96.2% and 98.3% and 100.1% and 100.2%
- Dissolution rate, 30 min ([1]; single capsules 1-6, purified water, 50 rpm, 30 min, hydrate): 103.4% and 100.7% and 98.0% and 99.1% and 102.2% and 100.2%
- Dissolution rate, 45 min ([1]; single capsules 1-6, purified water, 50 rpm, 45 min, hydrate): 102.8% and 101.5% and 97.5% and 99.7% and 102.7% and 100.9%
- MPO activity in lung tissues (LPS-induced ALI mice [2]): remarkably reduced
- protein expression of IL-1β, TNF-α, IL-6 and KC in response to LPS (RAW264.7 macrophages; LPS (100 ng/ml) 24 hrs): inhibited
- protein expression of IL-1β, TNF-α, IL-6 and KC in response to PGD2 (RAW264.7 macrophages; PGD2 (10 μM) 24 hrs): inhibited
- pathological scores (LPS-induced ALI mice [3]; CT-NA 10 mg/kg (P<0.05) and 30 mg/kg (P<0.01), Dex 1 mg/kg (P<0.01)): considerably reduced
- LPS-induced pulmonary histopathological changes (LPS-induced ALI mice [3]; CT-NA 10 or 30 mg/kg (dose dependence) or Dex 1 mg/kg, H&E): significant reduction
